Key:
Experiment in all cases: biochemical
Set-up in all cases: KINOMEscan active-site competition binding, percent of control (100 = no competition)
Details in all cases: competition binding, percent control
[1] = target: T1, PIP5K2C (Homo sapiens, UniProt Q8TBX8)
T1 construct: gene PIP4K2C

[2] = target: CDK8 (Homo sapiens, UniProt P49336)
[3] = target: T2, TRKB (Homo sapiens, UniProt Q16620)
T2 construct: gene NTRK2

[4] = target: CSNK1G2 (Homo sapiens, UniProt P78368)
[5] = target: ULK3 (Homo sapiens, UniProt Q6PHR2)
[6] = target: T3, MEK2 (Homo sapiens, UniProt P36507)
T3 construct: gene MAP2K2

[7] = target: MKNK1 (Homo sapiens, UniProt Q9BUB5)
[8] = target: T4, RIPK5 (Homo sapiens, UniProt Q6XUX3)
T4 construct: gene DSTYK

[9] = target: MELK (Homo sapiens, UniProt Q14680)
[10] = target: T5, QSK (Homo sapiens, UniProt Q9Y2K2)
T5 construct: gene SIK3

[11] = target: T6, RSK1(Kin.Dom.2-C-terminal) (Homo sapiens, UniProt Q15418)
T6 construct: gene RPS6KA1; Kin.Dom.2-C-terminal

[12] = target: KIT(D816H) (Homo sapiens, UniProt P10721, D816H)
[13] = target: SIK2 (Homo sapiens, UniProt Q9H0K1)
[14] = target: T7, DLK (Homo sapiens, UniProt Q12852)
T7 construct: gene MAP3K12

[15] = target: CAMK2D (Homo sapiens, UniProt Q13557)
[16] = target: PRKCH (Homo sapiens, UniProt P24723)
[17] = target: ERBB4 (Homo sapiens, UniProt Q15303)
[18] = target: NEK5 (Homo sapiens, UniProt Q6P3R8)
[19] = target: T8, JNK3 (Homo sapiens, UniProt P53779)
T8 construct: gene MAPK10

[20] = target: LYN (Homo sapiens, UniProt P07948)
[21] = target: MAP3K15 (Homo sapiens, UniProt Q6ZN16)
[22] = target: T9, PAK7 (Homo sapiens, UniProt Q9P286)
T9 construct: gene PAK5

[23] = target: INSR (Homo sapiens, UniProt P06213)

Chain of MKNK1 (Q9BUB5 whole entry): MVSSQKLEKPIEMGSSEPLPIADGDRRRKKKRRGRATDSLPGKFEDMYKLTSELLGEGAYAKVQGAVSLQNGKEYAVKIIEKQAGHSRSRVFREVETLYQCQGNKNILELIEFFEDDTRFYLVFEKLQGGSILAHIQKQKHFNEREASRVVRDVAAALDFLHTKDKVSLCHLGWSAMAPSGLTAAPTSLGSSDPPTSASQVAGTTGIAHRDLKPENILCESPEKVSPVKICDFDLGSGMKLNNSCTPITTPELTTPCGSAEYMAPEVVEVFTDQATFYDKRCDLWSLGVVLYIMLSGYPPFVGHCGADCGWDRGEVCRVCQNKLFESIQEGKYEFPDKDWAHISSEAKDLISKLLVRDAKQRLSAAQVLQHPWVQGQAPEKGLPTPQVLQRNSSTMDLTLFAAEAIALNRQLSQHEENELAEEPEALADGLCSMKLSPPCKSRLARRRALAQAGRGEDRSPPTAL
Chain of CAMK2D (Q13557 whole entry): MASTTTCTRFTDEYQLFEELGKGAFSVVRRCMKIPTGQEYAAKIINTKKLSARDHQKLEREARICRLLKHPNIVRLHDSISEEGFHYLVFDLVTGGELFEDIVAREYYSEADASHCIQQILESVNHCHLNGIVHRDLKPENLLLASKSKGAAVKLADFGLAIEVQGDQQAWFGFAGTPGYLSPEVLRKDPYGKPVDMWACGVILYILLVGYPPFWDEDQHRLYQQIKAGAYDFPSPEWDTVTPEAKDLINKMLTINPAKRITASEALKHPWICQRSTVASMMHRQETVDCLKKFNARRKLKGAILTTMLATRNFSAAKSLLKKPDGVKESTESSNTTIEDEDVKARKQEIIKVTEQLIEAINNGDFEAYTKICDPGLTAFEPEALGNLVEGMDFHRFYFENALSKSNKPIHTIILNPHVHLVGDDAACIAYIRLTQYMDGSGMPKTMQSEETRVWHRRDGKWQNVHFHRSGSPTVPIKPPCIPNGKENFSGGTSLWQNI
T3 sequence (P36507 whole entry): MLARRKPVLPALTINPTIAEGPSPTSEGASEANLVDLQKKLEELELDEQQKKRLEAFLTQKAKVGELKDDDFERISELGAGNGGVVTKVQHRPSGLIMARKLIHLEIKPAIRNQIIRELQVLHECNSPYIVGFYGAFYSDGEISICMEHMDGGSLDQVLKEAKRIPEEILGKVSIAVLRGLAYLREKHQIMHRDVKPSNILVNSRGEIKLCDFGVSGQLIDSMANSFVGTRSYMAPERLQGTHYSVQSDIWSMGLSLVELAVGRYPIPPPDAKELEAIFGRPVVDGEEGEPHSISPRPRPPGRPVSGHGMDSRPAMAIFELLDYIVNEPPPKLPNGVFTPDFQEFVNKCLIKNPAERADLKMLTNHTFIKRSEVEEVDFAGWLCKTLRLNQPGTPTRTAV
Chain of LYN (P07948 whole entry): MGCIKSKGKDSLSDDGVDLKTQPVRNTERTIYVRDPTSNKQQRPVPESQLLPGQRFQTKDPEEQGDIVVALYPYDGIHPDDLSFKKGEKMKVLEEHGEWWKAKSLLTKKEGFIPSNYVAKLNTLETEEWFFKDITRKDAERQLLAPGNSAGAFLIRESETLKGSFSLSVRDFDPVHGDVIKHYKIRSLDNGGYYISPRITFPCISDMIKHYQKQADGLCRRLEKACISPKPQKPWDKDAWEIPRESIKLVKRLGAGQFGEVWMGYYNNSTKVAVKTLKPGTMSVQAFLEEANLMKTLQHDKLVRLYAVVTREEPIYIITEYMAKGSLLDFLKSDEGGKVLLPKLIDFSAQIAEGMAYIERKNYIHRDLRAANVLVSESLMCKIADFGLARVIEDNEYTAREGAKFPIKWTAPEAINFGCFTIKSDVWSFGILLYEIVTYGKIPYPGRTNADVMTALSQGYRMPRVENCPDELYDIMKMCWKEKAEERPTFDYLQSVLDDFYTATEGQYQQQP
T6 sequence (Q15418 whole entry): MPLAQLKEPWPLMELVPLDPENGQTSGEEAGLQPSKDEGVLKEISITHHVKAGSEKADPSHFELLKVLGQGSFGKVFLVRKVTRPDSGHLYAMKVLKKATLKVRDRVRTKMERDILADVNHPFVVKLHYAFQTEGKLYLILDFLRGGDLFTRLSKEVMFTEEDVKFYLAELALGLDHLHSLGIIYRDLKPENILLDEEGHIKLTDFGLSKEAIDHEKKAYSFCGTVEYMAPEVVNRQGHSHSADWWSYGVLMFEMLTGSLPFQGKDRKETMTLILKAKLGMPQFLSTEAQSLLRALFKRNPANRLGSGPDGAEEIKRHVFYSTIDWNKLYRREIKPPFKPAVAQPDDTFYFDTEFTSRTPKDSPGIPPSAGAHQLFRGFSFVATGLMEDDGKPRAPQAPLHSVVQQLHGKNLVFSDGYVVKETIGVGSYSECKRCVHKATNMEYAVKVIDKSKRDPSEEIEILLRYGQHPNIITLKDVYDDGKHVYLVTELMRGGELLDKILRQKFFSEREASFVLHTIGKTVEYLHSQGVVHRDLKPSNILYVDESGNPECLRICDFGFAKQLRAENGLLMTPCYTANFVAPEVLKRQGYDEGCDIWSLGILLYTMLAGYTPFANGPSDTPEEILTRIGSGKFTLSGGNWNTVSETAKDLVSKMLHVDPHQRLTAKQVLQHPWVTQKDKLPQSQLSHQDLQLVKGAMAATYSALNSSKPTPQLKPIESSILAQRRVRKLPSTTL
T2 sequence (Q16620 whole entry): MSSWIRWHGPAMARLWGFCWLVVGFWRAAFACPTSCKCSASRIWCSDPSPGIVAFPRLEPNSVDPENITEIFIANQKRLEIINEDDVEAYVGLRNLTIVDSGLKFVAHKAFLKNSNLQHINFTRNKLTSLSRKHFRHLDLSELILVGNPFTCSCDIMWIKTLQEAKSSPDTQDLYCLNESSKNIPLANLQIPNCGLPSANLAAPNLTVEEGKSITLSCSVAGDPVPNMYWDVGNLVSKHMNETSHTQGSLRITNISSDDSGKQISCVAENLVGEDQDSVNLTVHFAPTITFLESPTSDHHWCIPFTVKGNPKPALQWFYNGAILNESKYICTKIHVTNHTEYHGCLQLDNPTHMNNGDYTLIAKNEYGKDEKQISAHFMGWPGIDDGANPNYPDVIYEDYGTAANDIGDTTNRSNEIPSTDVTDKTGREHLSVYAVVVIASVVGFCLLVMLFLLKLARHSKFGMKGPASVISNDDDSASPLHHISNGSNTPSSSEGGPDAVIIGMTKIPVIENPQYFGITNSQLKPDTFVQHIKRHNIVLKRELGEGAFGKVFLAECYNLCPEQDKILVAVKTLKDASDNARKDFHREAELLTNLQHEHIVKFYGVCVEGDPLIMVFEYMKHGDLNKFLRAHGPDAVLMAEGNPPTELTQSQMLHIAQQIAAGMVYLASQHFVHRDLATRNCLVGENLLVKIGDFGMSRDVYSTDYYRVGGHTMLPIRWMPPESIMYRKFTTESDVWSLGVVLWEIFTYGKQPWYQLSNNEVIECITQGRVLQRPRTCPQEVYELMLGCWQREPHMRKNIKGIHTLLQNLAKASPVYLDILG
Chain of NEK5 (Q6P3R8 whole entry): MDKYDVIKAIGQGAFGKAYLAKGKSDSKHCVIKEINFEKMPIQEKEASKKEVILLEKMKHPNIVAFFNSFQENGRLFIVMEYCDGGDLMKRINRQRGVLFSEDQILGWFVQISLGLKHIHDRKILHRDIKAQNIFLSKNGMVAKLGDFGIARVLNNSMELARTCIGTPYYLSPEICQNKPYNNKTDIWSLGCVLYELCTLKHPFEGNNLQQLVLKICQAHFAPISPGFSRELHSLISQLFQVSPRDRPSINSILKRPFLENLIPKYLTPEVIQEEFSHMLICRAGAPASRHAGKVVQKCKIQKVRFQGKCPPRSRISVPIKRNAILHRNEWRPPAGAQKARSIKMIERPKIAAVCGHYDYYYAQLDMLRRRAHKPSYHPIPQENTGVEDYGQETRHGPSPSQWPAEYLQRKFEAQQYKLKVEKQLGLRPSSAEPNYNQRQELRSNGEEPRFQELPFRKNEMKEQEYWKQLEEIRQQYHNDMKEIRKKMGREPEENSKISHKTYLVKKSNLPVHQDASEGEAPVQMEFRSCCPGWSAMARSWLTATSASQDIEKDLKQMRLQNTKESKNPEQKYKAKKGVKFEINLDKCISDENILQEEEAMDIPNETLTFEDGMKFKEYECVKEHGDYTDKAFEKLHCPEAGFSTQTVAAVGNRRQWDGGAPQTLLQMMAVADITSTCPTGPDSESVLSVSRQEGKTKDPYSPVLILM
Chain of CSNK1G2 (P78368 whole entry): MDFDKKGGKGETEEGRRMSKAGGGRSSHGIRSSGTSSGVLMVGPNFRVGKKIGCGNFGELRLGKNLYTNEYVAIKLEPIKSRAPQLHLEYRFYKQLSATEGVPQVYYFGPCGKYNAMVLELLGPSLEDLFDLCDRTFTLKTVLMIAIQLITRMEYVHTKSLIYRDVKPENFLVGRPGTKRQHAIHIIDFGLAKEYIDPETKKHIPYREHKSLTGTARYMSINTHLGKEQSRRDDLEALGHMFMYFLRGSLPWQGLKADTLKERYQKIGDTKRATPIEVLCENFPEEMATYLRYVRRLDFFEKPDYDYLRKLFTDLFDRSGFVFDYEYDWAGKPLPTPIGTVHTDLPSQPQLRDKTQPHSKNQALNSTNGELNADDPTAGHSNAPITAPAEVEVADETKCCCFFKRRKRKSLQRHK
Chain of CDK8 (P49336 whole entry): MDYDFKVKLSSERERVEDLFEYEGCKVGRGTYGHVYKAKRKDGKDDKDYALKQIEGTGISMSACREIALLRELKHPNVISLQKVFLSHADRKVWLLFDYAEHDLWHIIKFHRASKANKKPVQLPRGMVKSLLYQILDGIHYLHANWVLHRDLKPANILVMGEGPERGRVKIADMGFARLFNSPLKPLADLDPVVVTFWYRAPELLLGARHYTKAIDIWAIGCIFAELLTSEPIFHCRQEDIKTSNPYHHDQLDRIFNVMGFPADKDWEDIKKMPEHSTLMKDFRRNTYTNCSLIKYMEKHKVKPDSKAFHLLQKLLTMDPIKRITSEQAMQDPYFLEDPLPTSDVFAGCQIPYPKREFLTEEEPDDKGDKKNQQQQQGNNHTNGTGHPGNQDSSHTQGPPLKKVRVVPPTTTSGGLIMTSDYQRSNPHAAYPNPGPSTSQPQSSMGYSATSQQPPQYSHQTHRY

Compound	remaining binding at 10 µM [1]	remaining binding at 10 µM [2]	remaining binding at 10 µM [3]	remaining binding at 10 µM [4]	remaining binding at 10 µM [5]	remaining binding at 10 µM [6]	remaining binding at 10 µM [7]	remaining binding at 10 µM [8]	remaining binding at 10 µM [9]	remaining binding at 10 µM [10]	remaining binding at 10 µM [11]	remaining binding at 10 µM [12]	remaining binding at 10 µM [13]	remaining binding at 10 µM [14]	remaining binding at 10 µM [15]	remaining binding at 10 µM [16]	remaining binding at 10 µM [17]	remaining binding at 10 µM [18]	remaining binding at 10 µM [19]	remaining binding at 10 µM [20]	other results
COc1ccc(-c2cnccc2-c2cnc(NC(=O)C(C)C)s2)c(C(F)(F)F)c1 [CRT0105446, N-{5-[3-(4-Methoxy-2-trifluoromethyl-phenyl)-pyridin-4-yl]-hiazol-2-yl}-isobutyramide]	3%	39%	99%	55%	100%	92%	49%	86%	100%	100%	43%	89%	78%	100%	72%	100%	100%	99%	36%	100%	remaining binding at 10 µM [21]: 93%; remaining binding at 10 µM [22]: 95%; remaining binding at 10 µM [23]: 100%
Cc1ccc(-c2cnccc2-c2cnc(Nc3ccc(O)cc3)s2)c(Cl)c1 [CRT0105950, 4-{5-[3-(2-Chloro-4-methyl-phenyl)-pyridin-4-yl]-thiazol-2-ylamino}-phenol]	2.3%	11%	6.4%	30%	68%	42%	46%	45%	11%	72%	27%	46%	7.1%	100%	29%	49%	94%	65%	25%	26%	remaining binding at 10 µM [21]: 82%; remaining binding at 10 µM [22]: 93%; remaining binding at 10 µM [23]: 1%

Source: PMC4770715, “LIM kinase inhibitors disrupt mitotic microtubule organization and impair tumor cell proliferation” (Oncotarget, 2015)
